Starred links: 1 amine or outer side, 2 acyl side, 3 side chain; linkers in the order of their positions; H or OH if unused. Positions of bridges follow the written chain, without caps; N, C: chain ends. Non-standard residues stand in square brackets, D forms with d. Residues, ends and D or L forms follow the SMILES beside them. *: point of attachment. Bip(4'-NHCO-C6H4-3-CH2COOH) = N[C@@H](Cc1ccc(-c2ccc(NC(=O)c3cccc(CC(=O)O)c3)cc2)cc1)C(=O)O; Bip(4'-NHCO-C6H4-4-CH2COOH) = N[C@@H](Cc1ccc(-c2ccc(NC(=O)c3ccc(CC(=O)O)cc3)cc2)cc1)C(=O)O; dArg(Nω-CH2C6H4-3-CH2Gua) = N=C(N)NCc1cccc(CNC(=N)NCCC[C@@H](N)C(=O)O)c1; dArg(ω-(2S)-2,3-diOHpropyl) = N=C(NCCC[C@@H](N)C(=O)O)NC[C@H](O)CO; Bip(4'-NH) = O=C([C@H](Cc1ccc(-c2ccc(N[*:3])cc2)cc1)N[*:1])[*:2]; dArg(ω-(3-HO-benzyl)) = N=C(NCCC[C@@H](N)C(=O)O)NCc1cccc(O)c1; Indazole3carbonyl(1-CH2COOH) = O=C(O)Cn1nc(C(=O)*)c2ccccc21; Bip(4'-COOH) = N[C@@H](Cc1ccc(-c2ccc(C(=O)O)cc2)cc1)C(=O)O; Indole3carbonyl(1-CH2COOH) = O=C(O)Cn1cc(C(=O)*)c2ccccc21; Ala(imidazol-2-yl) = N[C@@H](Cc1ncc[nH]1)C(=O)O; Ala(morpholin-4-yl) = N[C@@H](CN1CCOCC1)C(=O)O; Benzoyl(3-OCH2COOH) = O=C(O)COc1cccc(C(=O)*)c1; Phe(3-CONH2) = NC(=O)c1cccc(C[C@H](N)C(=O)O)c1; Bip = N[C@@H](Cc1ccc(-c2ccccc2)cc1)C(=O)O; 2Pal = N[C@@H](Cc1ccccn1)C(=O)O; Cha = N[C@@H](CC1CCCCC1)C(=O)O; Sar = CNCC(=O)O

This is an account of results in patent US20250145665A1, “MACROCYCLIC PEPTIDES USEFUL AS MODULATORS OF TNF ALPHA” (Bristol-Myers Squibb Company, priority 2023, published 2025).

For the first experiment, the target named is TNFα (Homo sapiens, UniProt P01375). Briefly: TNF-Induced HEK-Blue Assay. It counts as cell-based.
Sequence of TNFα (P01375 77-233 limits assumed): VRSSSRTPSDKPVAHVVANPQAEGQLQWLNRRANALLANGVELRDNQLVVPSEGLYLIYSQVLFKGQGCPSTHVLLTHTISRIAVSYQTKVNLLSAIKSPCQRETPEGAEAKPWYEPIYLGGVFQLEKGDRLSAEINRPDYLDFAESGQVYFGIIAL
Conditions: not given
In turn, `CC(C)C[C@@H]1NC(=O)[C@H](Cc2ccc(O)cc2)NC(=O)[C@H](C(C)C)NC(=O)[C@@H]2CCCN2C(=O)[C@H](C(C)C)NC(=O)[C@@H](CCCNC(=N)NC[C@H](O)CO)NC(=O)[C@H](CC(=O)O)NC(=O)[C@@H]2CCCN2C(=O)CN(C)C(=O)[C@H](Cc2ccc(-c3ccc(NC(=O)c4nn(CC(=O)O)c5ccccc45)cc3)cc2)NC(=O)[C@H](Cc2ccc(-c3ccc(C(=O)O)cc3)cc2)NC(=O)[C@H](CC2CCCCC2)NC(=O)CSC[C@@H](C(=O)NCC(N)=O)NC1=O` [Example 545] ({CH2CO}-[Cha][Bip(4'-COOH)][Bip(4'-NH)](Indazole3carbonyl(1-CH2COOH))[Sar]PD[dArg(ω-(2S)-2,3-diOHpropyl)]VPVYLCG-NH2; thioether N-13) gave an IC50 of 50 to 200 nM. Same read-out and setting: for `CC(C)C[C@@H]1NC(=O)[C@H](Cc2cccc(C(N)=O)c2)NC(=O)[C@H](C(C)C)NC(=O)[C@@H]2CCCN2C(=O)[C@H](C(C)C)NC(=O)[C@@H](CCCNC(=N)NC[C@H](O)CO)NC(=O)[C@H](CC(=O)O)NC(=O)[C@H](Cc2ccc(O)cc2)NC(=O)CN(C)C(=O)[C@H](Cc2ccc(-c3ccc(NC(=O)c4nn(CC(=O)O)c5ccccc45)cc3)cc2)NC(=O)[C@H](Cc2ccc(-c3ccccc3)cc2)NC(=O)[C@H](CN2CCOCC2)NC(=O)CSC[C@@H](C(=O)NCC(N)=O)NC1=O` [Example 546] ({CH2CO}-[Ala(morpholin-4-yl)][Bip][Bip(4'-NH)](Indazole3carbonyl(1-CH2COOH))[Sar]YD[dArg(ω-(2S)-2,3-diOHpropyl)]VPV[Phe(3-CONH2)]LCG-NH2; thioether N-13) the value was < 50 nM; for `CC(C)C[C@@H]1NC(=O)[C@H](Cc2cccc(C(N)=O)c2)NC(=O)[C@H](C(C)C)NC(=O)[C@@H]2CCCN2C(=O)[C@H](C(C)C)NC(=O)[C@@H](CCCNC(=N)NC[C@H](O)CO)NC(=O)[C@H](CC(=O)O)NC(=O)[C@H](Cc2ccc(O)cc2)NC(=O)CN(C)C(=O)[C@H](Cc2ccc(-c3ccc(NC(=O)c4cn(CC(=O)O)c5ccccc45)cc3)cc2)NC(=O)[C@H](Cc2ccc(-c3ccccc3)cc2)NC(=O)[C@H](CN2CCOCC2)NC(=O)CSC[C@@H](C(=O)NCC(N)=O)NC1=O` [Example 547] ({CH2CO}-[Ala(morpholin-4-yl)][Bip][Bip(4'-NH)](Indole3carbonyl(1-CH2COOH))[Sar]YD[dArg(ω-(2S)-2,3-diOHpropyl)]VPV[Phe(3-CONH2)]LCG-NH2; thioether N-13), < 50 nM.

Take `CC(C)C[C@@H]1NC(=O)[C@H](Cc2ncc[nH]2)NC(=O)[C@H](C(C)C)NC(=O)[C@@H]2CCCN2C(=O)[C@H](C(C)C)NC(=O)[C@@H](CCCNC(=N)NCc2cccc(O)c2)NC(=O)[C@H](CC(=O)O)NC(=O)[C@H](Cc2ccccn2)NC(=O)CN(C)C(=O)[C@H](Cc2ccc(-c3ccc(NC(=O)c4nn(CC(=O)O)c5ccccc45)cc3)cc2)NC(=O)[C@H](Cc2ccc(-c3ccc(C(=O)O)cc3)cc2)NC(=O)[C@H](CC2CCCCC2)NC(=O)CSC[C@@H](C(=O)NCC(N)=O)NC1=O` [Example 551] ({CH2CO}-[Cha][Bip(4'-COOH)][Bip(4'-NH)](Indazole3carbonyl(1-CH2COOH))[Sar][2Pal]D[dArg(ω-(3-HO-benzyl))]VPV[Ala(imidazol-2-yl)]LCG-NH2; thioether N-13): the IC50 is < 50 nM.

For the compound `CC(C)C[C@@H]1NC(=O)[C@H](Cc2ncc[nH]2)NC(=O)[C@H](C(C)C)NC(=O)[C@@H]2CCCN2C(=O)[C@H](C(C)C)NC(=O)[C@@H](CCCNC(=N)NCc2cccc(O)c2)NC(=O)[C@H](CC(=O)O)NC(=O)[C@H](Cc2ccccn2)NC(=O)CN(C)C(=O)[C@H](Cc2ccc(-c3ccc(NC(=O)c4cn(CC(=O)O)c5ccccc45)cc3)cc2)NC(=O)[C@H](Cc2ccc(-c3ccc(C(=O)O)cc3)cc2)NC(=O)[C@H](CC2CCCCC2)NC(=O)CSC[C@@H](C(=O)NCC(N)=O)NC1=O` [Example 552] ({CH2CO}-[Cha][Bip(4'-COOH)][Bip(4'-NH)](Indole3carbonyl(1-CH2COOH))[Sar][2Pal]D[dArg(ω-(3-HO-benzyl))]VPV[Ala(imidazol-2-yl)]LCG-NH2; thioether N-13), the IC50 fell in the range of 50 to 200 nM. `CC(C)C[C@@H]1NC(=O)[C@H](Cc2ncc[nH]2)NC(=O)[C@H](C(C)C)NC(=O)[C@@H]2CCCN2C(=O)[C@H](C(C)C)NC(=O)[C@@H](CCCNC(=N)NCc2cccc(CNC(=N)N)c2)NC(=O)[C@H](CC(=O)O)NC(=O)[C@H](Cc2ccccn2)NC(=O)CN(C)C(=O)[C@H](Cc2ccc(-c3ccc(NC(=O)c4nn(CC(=O)O)c5ccccc45)cc3)cc2)NC(=O)[C@H](Cc2ccc(-c3ccc(C(=O)O)cc3)cc2)NC(=O)[C@H](CC2CCCCC2)NC(=O)CSC[C@@H](C(=O)NCC(N)=O)NC1=O` [Example 556] ({CH2CO}-[Cha][Bip(4'-COOH)][Bip(4'-NH)](Indazole3carbonyl(1-CH2COOH))[Sar][2Pal]D[dArg(Nω-CH2C6H4-3-CH2Gua)]VPV[Ala(imidazol-2-yl)]LCG-NH2; thioether N-13): the IC50 is < 50 nM.

Staying with this experiment, now noted: HEK-Blue-CD40L cells, NF-kB-driven secreted alkaline phosphatase reporter; TNFα 0.5 ng/ml; 18 h; read-out: TNF induced HEK-Blue assay IC50 value.
For `CC(C)C[C@@H]1NC(=O)[C@H](Cc2cccc(C(N)=O)c2)NC(=O)[C@H](C(C)C)NC(=O)[C@@H]2CCCN2C(=O)[C@H](C(C)C)NC(=O)[C@@H](CCCNC(=N)NC[C@H](O)CO)NC(=O)[C@H](CC(=O)O)NC(=O)[C@H](Cc2ccc(O)cc2)NC(=O)CN(C)C(=O)[C@H](Cc2ccc(-c3ccc(NC(=O)c4ccc(CC(=O)O)cc4)cc3)cc2)NC(=O)[C@H](Cc2ccc(-c3ccccc3)cc2)NC(=O)[C@H](CN2CCOCC2)NC(=O)CSC[C@@H](C(=O)NCC(N)=O)NC1=O` [Example 548] ({CH2CO}-[Ala(morpholin-4-yl)][Bip][Bip(4'-NHCO-C6H4-4-CH2COOH)][Sar]YD[dArg(ω-(2S)-2,3-diOHpropyl)]VPV[Phe(3-CONH2)]LCG-NH2; thioether N-13), the IC50 lay in the range of 50 to 200 nM.

Consider `CC(C)C[C@@H]1NC(=O)[C@H](Cc2cccc(C(N)=O)c2)NC(=O)[C@H](C(C)C)NC(=O)[C@@H]2CCCN2C(=O)[C@H](C(C)C)NC(=O)[C@@H](CCCNC(=N)NC[C@H](O)CO)NC(=O)[C@H](CC(=O)O)NC(=O)[C@H](Cc2ccc(O)cc2)NC(=O)CN(C)C(=O)[C@H](Cc2ccc(-c3ccc(NC(=O)c4cccc(CC(=O)O)c4)cc3)cc2)NC(=O)[C@H](Cc2ccc(-c3ccccc3)cc2)NC(=O)[C@H](CN2CCOCC2)NC(=O)CSC[C@@H](C(=O)NCC(N)=O)NC1=O` [Example 549] ({CH2CO}-[Ala(morpholin-4-yl)][Bip][Bip(4'-NHCO-C6H4-3-CH2COOH)][Sar]YD[dArg(ω-(2S)-2,3-diOHpropyl)]VPV[Phe(3-CONH2)]LCG-NH2; thioether N-13), for which the IC50 was in the range of 50 to 200 nM. On the same count and under the same terms, for `CC(C)C[C@@H]1NC(=O)[C@H](Cc2cccc(C(N)=O)c2)NC(=O)[C@H](C(C)C)NC(=O)[C@@H]2CCCN2C(=O)[C@H](C(C)C)NC(=O)[C@@H](CCCNC(=N)NC[C@H](O)CO)NC(=O)[C@H](CC(=O)O)NC(=O)[C@H](Cc2ccc(O)cc2)NC(=O)CN(C)C(=O)[C@H](Cc2ccc(-c3ccc(NC(=O)c4cccc(OCC(=O)O)c4)cc3)cc2)NC(=O)[C@H](Cc2ccc(-c3ccccc3)cc2)NC(=O)[C@H](CN2CCOCC2)NC(=O)CSC[C@@H](C(=O)NCC(N)=O)NC1=O` [Example 550] ({CH2CO}-[Ala(morpholin-4-yl)][Bip][Bip(4'-NH)](Benzoyl(3-OCH2COOH))[Sar]YD[dArg(ω-(2S)-2,3-diOHpropyl)]VPV[Phe(3-CONH2)]LCG-NH2; thioether N-13) the value was 50 to 200 nM; for `CC(C)C[C@@H]1NC(=O)[C@H](Cc2ncc[nH]2)NC(=O)[C@H](C(C)C)NC(=O)[C@@H]2CCCN2C(=O)[C@H](C(C)C)NC(=O)[C@@H](CCCNC(=N)NCc2cccc(O)c2)NC(=O)[C@H](CC(=O)O)NC(=O)[C@H](Cc2ccccn2)NC(=O)CN(C)C(=O)[C@H](Cc2ccc(-c3ccc(NC(=O)c4cccc(CC(=O)O)c4)cc3)cc2)NC(=O)[C@H](Cc2ccc(-c3ccc(C(=O)O)cc3)cc2)NC(=O)[C@H](CC2CCCCC2)NC(=O)CSC[C@@H](C(=O)NCC(N)=O)NC1=O` [Example 553] ({CH2CO}-[Cha][Bip(4'-COOH)][Bip(4'-NHCO-C6H4-3-CH2COOH)][Sar][2Pal]D[dArg(ω-(3-HO-benzyl))]VPV[Ala(imidazol-2-yl)]LCG-NH2; thioether N-13), 50 to 200 nM; for `CC(C)C[C@@H]1NC(=O)[C@H](Cc2ncc[nH]2)NC(=O)[C@H](C(C)C)NC(=O)[C@@H]2CCCN2C(=O)[C@H](C(C)C)NC(=O)[C@@H](CCCNC(=N)NCc2cccc(O)c2)NC(=O)[C@H](CC(=O)O)NC(=O)[C@H](Cc2ccccn2)NC(=O)CN(C)C(=O)[C@H](Cc2ccc(-c3ccc(NC(=O)c4ccc(CC(=O)O)cc4)cc3)cc2)NC(=O)[C@H](Cc2ccc(-c3ccc(C(=O)O)cc3)cc2)NC(=O)[C@H](CC2CCCCC2)NC(=O)CSC[C@@H](C(=O)NCC(N)=O)NC1=O` [Example 554] ({CH2CO}-[Cha][Bip(4'-COOH)][Bip(4'-NHCO-C6H4-4-CH2COOH)][Sar][2Pal]D[dArg(ω-(3-HO-benzyl))]VPV[Ala(imidazol-2-yl)]LCG-NH2; thioether N-13), < 50 nM.

Regarding `CC(C)C[C@@H]1NC(=O)[C@H](Cc2ncc[nH]2)NC(=O)[C@H](C(C)C)NC(=O)[C@@H]2CCCN2C(=O)[C@H](C(C)C)NC(=O)[C@@H](CCCNC(=N)NCc2cccc(O)c2)NC(=O)[C@H](CC(=O)O)NC(=O)[C@H](Cc2ccccn2)NC(=O)CN(C)C(=O)[C@H](Cc2ccc(-c3ccc(NC(=O)c4cccc(OCC(=O)O)c4)cc3)cc2)NC(=O)[C@H](Cc2ccc(-c3ccc(C(=O)O)cc3)cc2)NC(=O)[C@H](CC2CCCCC2)NC(=O)CSC[C@@H](C(=O)NCC(N)=O)NC1=O` [Example 555] ({CH2CO}-[Cha][Bip(4'-COOH)][Bip(4'-NH)](Benzoyl(3-OCH2COOH))[Sar][2Pal]D[dArg(ω-(3-HO-benzyl))]VPV[Ala(imidazol-2-yl)]LCG-NH2; thioether N-13), the IC50 is < 50 nM.
